Data published in US11925624B2, “Methods of administering anti-fibrotic therapy” (GENENTECH, INC., priority 2016, dated 2024).
Where “and” joins values, the source holds several entries; their conditions need not be identical. Identical values can stand only once. Like-named read-outs stand apart in the source and are kept apart here.

Assay: Phase 1 multiple ascending dose (Part B) pharmacokinetics after low-fat meal
Format: in vivo, human
Details: for Tmax: median; for AUC: read-out: AUC0-τ; for CL renal: urine and plasma
Procedure: In Part B, 24 subjects were studied in 3 groups (Groups B1 to B3), with each group consisting of 8 subjects (6 received Compound I and 2 received placebo). The dose, dosing frequency, duration, and dietary state for Part B were determined based on review of available PK, safety, and tolerability data from Parts A and B.
All doses in Part B were administered following administration of a low-fat meal. In Groups B1 and B3, Compound I (200 mg for Group B1, 275 mg for Group B3) or placebo was administered twice daily (BID) on Days 1 to 6 and once on the morning of Day 7. In Group B2, subjects received QD dosing with 525 mg Compound I or placebo on Days 1 to 7.
In Part B, each subject participated in 1 treatment period. Subjects resided at the CRU from Day −1 (the day before dosing) until the morning of Day 10 (72 hours after the final dose on Day 7). All subjects returned for a Follow-up visit between 5 to 14 days after their final dose.
In Part B, all doses were administered after a low-fat meal. On Day 1 and Day 7 (days with post-dose PK sampling), subjects started a low-fat breakfast 30 minutes prior to dosing and were given 15 minutes to complete their meal; dosing occurred approximately 15 minutes after completion of breakfast. On dosing Days 2 through 6, subjects were to complete their breakfast within an hour prior to dosing. For the evening doses, subjects were given a standard meal and completed their meal between 1 and 2 hours prior to dosing.

[1] = 200 mg BID (B1), Day 1, low-fat meal
[2] = 200 mg BID (B1), Day 7, low-fat meal
[3] = 275 mg BID (B3), Day 1, low-fat meal
[4] = 275 mg BID (B3), Day 7, low-fat meal
[5] = 525 mg QD (B2), Day 1, low-fat meal
[6] = 525 mg QD (B2), Day 7, low-fat meal
[7] = human, plasma, oral, 200 mg, 200 mg BID (B1), Day 1, low-fat meal
[8] = human, plasma, oral, 200 mg, 200 mg BID (B1), Day 7, low-fat meal
[9] = human, plasma, oral, 275 mg, 275 mg BID (B3), Day 1, low-fat meal
[10] = human, plasma, oral, 275 mg, 275 mg BID (B3), Day 7, low-fat meal
[11] = human, plasma, oral, 525 mg, 525 mg QD (B2), Day 1, low-fat meal
[12] = human, plasma, oral, 525 mg, 525 mg QD (B2), Day 7, low-fat meal
[13] = human, plasma, oral, 200 mg BID (B1), Day 7, low-fat meal
[14] = human, plasma, oral, 275 mg BID (B3), Day 7, low-fat meal
[15] = human, plasma, oral, 525 mg QD (B2), Day 7, low-fat meal

With `Cn1cc(-c2cn(-c3ccc(OC(F)(F)F)cc3)c(=O)c3ncn(C)c23)cn1` [Compound I] the “AUC0-τ(norm)” value [1] was 11300 hr*ng/mL/(mg/kg), the Ae0-12 [1] was 105 mg and the “Cmax (norm)” value [1] was 1970 ng/mL/(mg/kg). The fe0-12 [1] was 52.5%, the “AUC0-τ(norm)” value [2] was 12600 hr*ng/mL/(mg/kg) and the Ae0-12 [2] was 142 mg. The CL/F [2] was 85.9 mL/min, the “CL/F(norm)” value [2] was 1.32 (mL/min)/kg and the “Cmax (norm)” value [2] was 1970 ng/mL/(mg/kg). For the same molecule, the “RAAUC (accumulation ratio based on AUC0-τ)” value [2] was 1.1 and 1.11, the fe0-12 [2] was 71.2% and the λZ [2] was 0.142 h⁻¹. For the same molecule, the “Mean pre-dose (trough) Compound I concentration” value (shortened to “Mean pre-dose”) (200 mg BID, Day 7) was 1680 ng/mL, the “AUC0-τ(norm)” value [3] was 9560 hr*ng/mL/(mg/kg) and the Ae0-12 [3] was 162 mg. For the same molecule, the “Cmax (norm)” value [3] was 1540 ng/mL/(mg/kg), the fe0-12 [3] was 58.9% and the “AUC0-τ(norm)” value [4] was 14300 hr*ng/mL/(mg/kg). For the same molecule, the Ae0-12 [4] was 190 mg, the CL/F [4] was 81.1 mL/min and the “CL/F(norm)” value [4] was 1.16 (mL/min)/kg. For the same molecule, the “Cmax (norm)” value [4] was 1900 ng/mL/(mg/kg), the “RAAUC (accumulation ratio based on AUC0-τ)” value [4] was 1.5 and the fe0-12 [4] was 69.1%. The λZ [4] was 0.123 h⁻¹, the “Fold increase in geometric mean Cmax” value (275 mg BID vs 200 mg BID (1.4-fold increase in dose)) was 1.2 fold and the “Mean pre-dose” value (275 mg BID, Day 7) was 3260 ng/mL. The “AUC0-τ(norm)” value [5] was 10500 hr*ng/mL/(mg/kg), the Ae0-12 [5] was 171 mg and the Ae0-24 [5] was 242 mg. The “Cmax (norm)” value [5] was 1140 ng/mL/(mg/kg), the fe0-12 [5] was 32.6% and the fe0-24 [5] was 46.1%. The “AUC0-τ(norm)” value [6] was 13100 hr*ng/mL/(mg/kg), the Ae0-12 [6] was 185 mg and the Ae0-24 [6] was 284 mg. For the same molecule, the CL/F [6] was 89.4 mL/min, the “CL/F(norm)” value [6] was 1.27 (mL/min)/kg and the “Cmax (norm)” value [6] was 1260 ng/mL/(mg/kg). For the same molecule, the “RAAUC (accumulation ratio based on AUC0-τ)” value [6] was 1.3 and 1.25, the fe0-12 [6] was 35.3% and the fe0-24 [6] was 54.0%. The λZ [6] was 0.0544 h⁻¹, the “Fold increase in geometric mean AUC0-∞” value (525 mg QD vs 200 mg BID (2.6-fold increase in dose)) was 2.5 fold and the “Mean pre-dose” value (525 mg QD, Day 7) was 897 ng/mL. For the same molecule, the “Time to steady-state plasma concentrations” value (200 and 275 mg BID and 525 mg QD) was no more than 2 days, the Tmax at 1 day (human, plasma, oral, 200 mg BID, 275 mg BID, 525 mg QD, Day 1, read-out: Median tmax, range across regimens) was 2.3 to 3.5 h and the Tmax at 7 day (human, plasma, oral, 200 mg BID, 275 mg BID, 525 mg QD, Day 7, read-out: Median tmax, range across regimens) was 2.8 to 4 h. For the same molecule, the Cmax [7] was 6080 ng/mL, the Tmax [7] was 3 h and the AUC [7] was 34900 ng·h/mL. For the same molecule, the Cmax [8] was 6060 ng/mL, the Tmax [8] was 4 h and the AUC [8] was 38800 ng·h/mL. The Cmax [9] was 6070 ng/mL, the Tmax [9] was 2.28 h and the AUC [9] was 37700 ng·h/mL. It also gave a Cmax [10] of 7500 ng/mL, a Tmax [10] of 2.75 h and an AUC [10] of 56500 ng·h/mL. It also gave a Cmax [11] of 8510 ng/mL, a Tmax [11] of 3.5 h and an AUC [11] of 78100 ng·h/mL. It also gave a Cmax [12] of 9440 ng/mL, a Tmax [12] of 3.53 h and an AUC [12] of 97800 ng·h/mL. The half-life [13] was 4.89 h, the half-life at 7 day [13] was 4.9 h and the Vd/F (human, plasma, oral, 200 mg BID (B1), Day 7, low-fat meal, read-out: Vz/F) was 36.1 L. It also gave a Vd/F (human, plasma, oral, 200 mg BID (B1), Day 7, low-fat meal, read-out: Vz/F(norm)) of 0.576 L/kg, a half-life [14] of 5.64 h and a half-life at 7 day [14] of 5.6 h. For the same molecule, the Vd/F (human, plasma, oral, 275 mg BID (B3), Day 7, low-fat meal, read-out: Vz/F) was 39.6 L, the Vd/F (human, plasma, oral, 275 mg BID (B3), Day 7, low-fat meal, read-out: Vz/F(norm)) was 0.568 L/kg and the half-life [15] was 6.25 h. For the same molecule, the half-life at 7 day [15] was 6.3 h, the Vd/F (human, plasma, oral, 525 mg QD (B2), Day 7, low-fat meal, read-out: Vz/F) was 98.6 L and the Vd/F (human, plasma, oral, 525 mg QD (B2), Day 7, low-fat meal, read-out: Vz/F(norm)) was 1.4 L/kg. It also gave a CL renal (human, oral, 200 mg, 200 mg BID (B1), Day 1, low-fat meal) of 50.2 mL/min, a CL renal (human, oral, 200 mg, 200 mg BID (B1), Day 7, low-fat meal) of 61.2 mL/min and a CL renal (human, oral, 275 mg, 275 mg BID (B3), Day 1, low-fat meal) of 71.6 mL/min. The CL renal (human, oral, 275 mg, 275 mg BID (B3), Day 7, low-fat meal) was 56.1 mL/min, the CL renal (human, oral, 525 mg, 525 mg QD (B2), Day 1, low-fat meal) was 51.7 mL/min and the CL renal (human, oral, 525 mg, 525 mg QD (B2), Day 7, low-fat meal) was 48.3 mL/min.
